Data reported in PubChem BioAssay (NCI).
“And” between values parts separate entries of the source, which are not always exact repeats. Identical values can stand only once.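 Dose response: 5 concentrations. Exposure: 48 h. Format: 96-well plates. Endpoint: linear interpolation; highest concentration if not reached. GI50 is the concentration that inhibits growth by half. TGI: total growth inhibition.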

How the values were obtained:
Test in all cases: inhibition of tumour cell growth, NCI panel, 48 h
[1] = test system: COLO 205 colon
[2] = test system: HL-60(TB) leukemia
[3] = test system: KM12 colon
[4] = test system: NCI-H226 lung
[5] = test system: NCI-H23 lung
[6] = test system: SNB-75 CNS
[7] = test system: SR leukemia
[8] = test system: SW-620 colon
[9] = test system: OVCAR-5 ovarian
[10] = test system: U251 CNS

Row | SMILES | TGI [1] | TGI [2] | TGI [3] | TGI [4] | TGI [5] | TGI [6] | TGI [7] | TGI [8] | GI50 [1] | GI50 [2] | GI50 [3] | GI50 [4] | GI50 [5] | GI50 [9] | TGI [9] | GI50 [6] | GI50 [7] | GI50 [8] | GI50 [10] | TGI [10]
1 | COC12CCC(C(C(=O)c3ccccc3)=C1C(=O)c1ccccc1)C(O)C2 (centres undefined) | > 100 µM | > 100 µM | > 100 µM | > 100 µM | > 100 µM | > 100 µM | > 100 µM | > 100 µM | – | – | – | – | – | – | – | – | – | – | – | –
2 | CCNNC(=O)[C@@H]1[C@H](c2cc(OC)c(OC)c(OC)c2)c2cc3c(cc2[C@H](O)[C@H]1CO)OCO3 | 0.646 µM | 0.707 µM | > 100 µM | – | > 100 µM | > 100 µM | > 100 µM | > 100 µM | 266 nM | 277 nM | 387 nM | 311 nM | 372 nM | 519 nM | > 100 µM | 442 nM | 315 nM | 396 nM | 321 nM | > 100 µM
3 | COc1cc(/C=C\c2ccc(Br)cc2)cc(OC)c1OC | 1.21 µM | 0.0032 µM | > 100 µM | – | – | – | 10.6 µM | > 100 µM | – | – | – | – | – | – | 96.8 µM | – | – | – | – | 0.012 µM
4 | Cn1cnc2c(F)c(Nc3ccc(Br)cc3F)c(C(=O)NOCCO)cc21 | – | > 100 µM | > 100 µM | > 100 µM | > 100 µM | – | > 100 µM | > 100 µM | 11.3 nM and 23.6 nM | 19.3 nM and 19.2 nM | 264 nM and 445 nM | – | 227 nM and 215 nM | 28.6 nM and 22 nM | > 48.4 µM | – | > 47000 nM | 29 nM and 44.9 nM | 7780 nM | > 100 µM
5 | CN1C[C@@H]2Cn3c(c(C4=C(c5cn(C)c6ccccc56)C(=O)NC4=O)c4ccccc43)C[C@H]2C1 | 6.7 µM and 5.72 µM | 10.5 µM and 8.53 µM | 9.19 µM and 7.87 µM | 15 µM and 10.9 µM | 10.7 µM and 15.3 µM | 3.79 µM and 3.6 µM | 14.4 µM and 7.38 µM | 9.21 µM and 8.94 µM | 3090 nM and 1960 nM | 5480 nM and 3630 nM | 4490 nM and 3670 nM | 4530 nM and 4060 nM | 4960 nM and 6110 nM | 6860 nM and 5420 nM | 23.1 µM and 17.2 µM | 441 nM and 259 nM | 4890 nM and 1770 nM | 4340 nM and 3220 nM | 3590 nM and 2830 nM | 7.27 µM and 6.37 µM
6 | O=C1c2ccccc2-c2c1c1ccc([N+](=O)[O-])cc1c(=O)n2CCCNCCO | 2.81 µM | 1.52 µM | 1.76 µM | 3.65 µM | 0.713 µM | 1.34 µM | 1.78 µM | 1.77 µM | 1050 nM | 242 nM | 297 nM | 1010 nM | 115 nM | 520 nM | 1.92 µM | 372 nM | 35.5 nM | 59.4 nM | 77.8 nM | 1.43 µM
7 | O=C(N/N=C/c1ccc(Cl)cc1Cl)c1ccc2nc(-c3ccc(Cl)cc3)[nH]c2c1 | 3.25 µM | 6.53 µM | 4.46 µM | 3.48 µM | 4.43 µM | 3.62 µM | 3.95 µM | 3.69 µM | 1550 nM | 1850 nM | 2030 nM | 1770 nM | 1930 nM | 1850 nM | 3.97 µM | 1590 nM | 1010 nM | 1830 nM | 2100 nM | 4.18 µM
8 | OCC(CCc1c[nH]c2ccccc12)c1c[nH]c2ccccc12 (centres undefined) | 30.6 µM | 26.6 µM | 32.5 µM | 36.7 µM | 30 µM | 45.7 µM | 41.5 µM | 29.4 µM | – | – | – | – | – | – | 33.2 µM | – | – | – | – | 30.4 µM
9 | COc1cc2c3c(n(CCCBr)c(=O)c2cc1OC)-c1ccc(F)cc1C3=O | > 100 µM | > 100 µM | > 100 µM | > 100 µM | 76.4 µM | 28.2 µM | 1.73 µM | > 100 µM | 33400 nM | 24800 nM | 35300 nM | 28000 nM | 17800 nM | 50000 nM | > 100 µM | 12900 nM | 280 nM | 7020 nM | 3740 nM | 24.3 µM
10 | CC(=O)OC1CCC2C(=CCC3C2(C)C(=O)CC2(C)C(C4(C)OC(C(C)C)=CC4=O)C(O)CC32C)C1(C)C (centres undefined) | > 100 µM | – | > 10 µM | > 100 µM | > 100 µM | > 100 µM | 72.5 µM | > 100 µM | – | – | – | – | – | – | > 100 µM | – | – | – | – | > 100 µM
11 | CC(C)CC12CC3CCC(CNC1=O)C32C (centres undefined) | > 100 µM | > 100 µM | > 100 µM | > 100 µM | > 100 µM | > 100 µM | > 100 µM | > 100 µM | – | – | – | – | – | – | > 100 µM | – | – | – | – | > 100 µM
